Experimental data reported in PubChem BioAssay (NCI).
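Where inhibition never reached the appropriate level, the endpoint shown equals the highest concentration tested. Otherwise, values were interpolated linearly from a five-concentration, 48-hour dose response in 96-well plates. TGI: concentration producing complete growth inhibition.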

Assays:
Assay in all cases: NCI anticancer screen, dose series, 48 h
SW-620 colon = system: SW-620 colon
T-47D breast = system: T-47D breast
CCRF-CEM leukemia = system: CCRF-CEM leukemia
SF-268 CNS = system: SF-268 CNS
MDA-N = system: MDA-N
BT-549 breast = system: BT-549 breast
SN12C renal = system: SN12C renal
RXF 393 renal = system: RXF 393 renal
IGROV1 ovarian = system: IGROV1 ovarian
HCT-15 colon = system: HCT-15 colon
KM12 colon = system: KM12 colon
UO-31 renal = system: UO-31 renal
DU-145 prostate = system: DU-145 prostate
ACHN renal = system: ACHN renal
HOP-62 NSCLC = system: HOP-62 NSCLC
RPMI-8226 leukemia = system: RPMI-8226 leukemia
HT29 colon = system: HT29 colon
TK-10 renal = system: TK-10 renal
SK-MEL-28 melanoma = system: SK-MEL-28 melanoma
K-562 leukemia = system: K-562 leukemia
OVCAR-4 ovarian = system: OVCAR-4 ovarian
OVCAR-3 ovarian = system: OVCAR-3 ovarian
HCC-2998 colon = system: HCC-2998 colon
EKVX NSCLC = system: EKVX NSCLC
NCI/ADR-RES ovarian = system: NCI/ADR-RES ovarian
NCI-H460 lung = system: NCI-H460 lung
SF-295 CNS = system: SF-295 CNS
PC-3 prostate = system: PC-3 prostate
MDA-MB-231 breast = system: MDA-MB-231 breast
786-0 renal = system: 786-0 renal
MOLT-4 leukemia = system: MOLT-4 leukemia
U251 CNS = system: U251 CNS
NCI-H23 lung = system: NCI-H23 lung
CAKI-1 renal = system: CAKI-1 renal
NCI-H522 lung = system: NCI-H522 lung
UACC-62 melanoma = system: UACC-62 melanoma
A549 NSCLC = system: A549 NSCLC
HS 578T breast = system: HS 578T breast
HCT-116 colon = system: HCT-116 colon
SF-539 CNS = system: SF-539 CNS
UACC-257 melanoma = system: UACC-257 melanoma
OVCAR-8 ovarian = system: OVCAR-8 ovarian
SR leukemia = system: SR leukemia
M14 melanoma = system: M14 melanoma
HL-60(TB) leukemia = system: HL-60(TB) leukemia
NCI-H226 lung = system: NCI-H226 lung
SK-OV-3 ovarian = system: SK-OV-3 ovarian
MCF7 breast = system: MCF7 breast
SK-MEL-5 melanoma = system: SK-MEL-5 melanoma
MDA-MB-435 = system: MDA-MB-435
COLO 205 colon = system: COLO 205 colon
SNB-75 CNS = system: SNB-75 CNS
SNB-19 CNS = system: SNB-19 CNS
MALME-3M melanoma = system: MALME-3M melanoma
LOX IMVI melanoma = system: LOX IMVI melanoma
HOP-92 NSCLC = system: HOP-92 NSCLC
OVCAR-5 ovarian = system: OVCAR-5 ovarian

CC(=O)C12C[C@](C#N)(N3CCCCCC3)C1C=Cc1ccccc12 (stereo not given in full)
TGI (SW-620 colon): > 100 µM | TGI (T-47D breast): > 100 µM | TGI (CCRF-CEM leukemia): > 100 µM | TGI (SF-268 CNS): > 100 µM | TGI (MDA-N): > 100 µM | TGI (BT-549 breast): > 100 µM | TGI (SN12C renal): > 100 µM | TGI (RXF 393 renal): > 100 µM | TGI (IGROV1 ovarian): > 100 µM | TGI (HCT-15 colon): > 100 µM | TGI (KM12 colon): > 100 µM | TGI (UO-31 renal): > 100 µM | TGI (DU-145 prostate): > 100 µM | TGI (ACHN renal): > 100 µM | TGI (HOP-62 NSCLC): > 100 µM | TGI (RPMI-8226 leukemia): > 100 µM | TGI (HT29 colon): > 100 µM | TGI (TK-10 renal): > 100 µM | TGI (SK-MEL-28 melanoma): > 100 µM | TGI (K-562 leukemia): > 100 µM | TGI (OVCAR-4 ovarian): > 100 µM | TGI (OVCAR-3 ovarian): > 100 µM | TGI (HCC-2998 colon): > 100 µM | TGI (EKVX NSCLC): > 100 µM | TGI (NCI/ADR-RES ovarian): > 100 µM | TGI (NCI-H460 lung): > 100 µM | TGI (SF-295 CNS): > 100 µM | TGI (PC-3 prostate): > 100 µM | TGI (MDA-MB-231 breast): > 100 µM | TGI (786-0 renal): > 100 µM | TGI (MOLT-4 leukemia): > 100 µM | TGI (U251 CNS): > 100 µM | TGI (NCI-H23 lung): > 100 µM | TGI (CAKI-1 renal): > 100 µM | TGI (NCI-H522 lung): > 100 µM | TGI (UACC-62 melanoma): > 100 µM | TGI (A549 NSCLC): > 100 µM | TGI (HS 578T breast): > 100 µM | TGI (HCT-116 colon): > 100 µM | TGI (SF-539 CNS): > 100 µM | TGI (UACC-257 melanoma): > 100 µM | TGI (OVCAR-8 ovarian): > 100 µM | TGI (SR leukemia): > 100 µM | TGI (M14 melanoma): > 100 µM | TGI (HL-60(TB) leukemia): > 100 µM | TGI (NCI-H226 lung): > 100 µM | TGI (SK-OV-3 ovarian): > 100 µM | TGI (MCF7 breast): > 100 µM | TGI (SK-MEL-5 melanoma): > 100 µM | TGI (MDA-MB-435): > 100 µM | TGI (COLO 205 colon): > 100 µM | TGI (SNB-75 CNS): > 100 µM | TGI (SNB-19 CNS): > 100 µM

COc1cc(/C=N\NC(=O)C[N+](C)(C)C)cc(OC)c1OC
TGI (MALME-3M melanoma): > 10 µM | TGI (SW-620 colon): > 10 µM | TGI (T-47D breast): > 10 µM | TGI (LOX IMVI melanoma): > 10 µM | TGI (CCRF-CEM leukemia): > 10 µM | TGI (SF-268 CNS): > 10 µM | TGI (MDA-N): > 10 µM | TGI (BT-549 breast): > 10 µM | TGI (SN12C renal): > 10 µM | TGI (HOP-92 NSCLC): > 10 µM | TGI (IGROV1 ovarian): > 10 µM | TGI (HCT-15 colon): > 10 µM | TGI (KM12 colon): > 10 µM | TGI (DU-145 prostate): > 10 µM | TGI (ACHN renal): > 10 µM | TGI (HOP-62 NSCLC): > 10 µM | TGI (RPMI-8226 leukemia): > 10 µM | TGI (OVCAR-5 ovarian): > 10 µM | TGI (HT29 colon): > 10 µM | TGI (TK-10 renal): > 10 µM | TGI (SK-MEL-28 melanoma): > 10 µM | TGI (K-562 leukemia): > 10 µM | TGI (OVCAR-4 ovarian): > 10 µM | TGI (OVCAR-3 ovarian): > 10 µM | TGI (HCC-2998 colon): > 10 µM | TGI (NCI/ADR-RES ovarian): > 10 µM | TGI (SF-295 CNS): > 10 µM | TGI (PC-3 prostate): > 10 µM | TGI (MDA-MB-231 breast): > 10 µM | TGI (786-0 renal): > 10 µM | TGI (MOLT-4 leukemia): > 10 µM | TGI (U251 CNS): > 10 µM | TGI (NCI-H23 lung): > 10 µM | TGI (CAKI-1 renal): > 10 µM | TGI (NCI-H522 lung): > 10 µM | TGI (UACC-62 melanoma): > 10 µM | TGI (A549 NSCLC): > 10 µM | TGI (HS 578T breast): > 10 µM | TGI (HCT-116 colon): > 10 µM | TGI (SF-539 CNS): > 10 µM | TGI (UACC-257 melanoma): > 10 µM | TGI (OVCAR-8 ovarian): > 10 µM | TGI (SR leukemia): > 10 µM | TGI (M14 melanoma): > 10 µM | TGI (HL-60(TB) leukemia): > 10 µM | TGI (SK-OV-3 ovarian): > 10 µM | TGI (MCF7 breast): > 10 µM | TGI (SK-MEL-5 melanoma): > 10 µM | TGI (MDA-MB-435): > 10 µM | TGI (COLO 205 colon): > 10 µM | TGI (SNB-75 CNS): > 10 µM | TGI (SNB-19 CNS): > 10 µM
